Experimental data from patent US20200399392A1, “INHIBITORS OF PLA2-G1B COFACTORS FOR TREATING CANCER” (priority 2018, published 2020).

Key:
pSTAT5 NT in CD4 T cells = test: PLA2-GIB bioassay on CD4 T cells: pSTAT5 nuclear translocation in response to IL-7, confocal microscopy; format: cell-based, human; conditions: for effect on pSTAT5 NT: FIG. 5B; for nuclear translocation of phosphoSTAT5 (pSTAT5 NT) induced by IL-7: buffer, FIG. 1A; for pSTAT5 NT in response to IL-7: FIG. 2
Description: Purification of Human CD4 T-lymphocytes—Venous blood was obtained from healthy volunteers through the EFS (Etablissement Français du Sang, Centre Necker-Cabanel, Paris). CD4 T-cells were purified from whole blood using RosetteSep Human CD4+ T cell Enrichment Cocktail (Stem Cell, 15062). This cocktail contains mouse and rat monoclonal antibodies purified from mouse ascites fluid or hybridoma culture supernatant, by affinity chromatography using protein A or Protein G sepharose. These antibodies are bound in bispecific tetrameric antibody complexes which are directed against cell surface antigens on human hematopoietic cells (CD8, CD16, CD19, CD36, CD56 CD66b, TCRγ/δ) and glycophorin A on red blood cells. The rosetteSep antibody cocktail crosslinks unwanted cells in human whole blood to multiple red blood cells, forming immunorosettes. This increases the density of unwanted cells, such that they pellet along with the free red blood cells when centrifuged over a buoyant density medium such as lymphocytes separation medium (Eurobio, CMSMSL01-01).
Whole blood was incubated with RosetteSep Human CD4+ T cell Enrichment Cocktail at 50 μl/ml for 20 minutes at room temperature under gentle shaking (100 rpm), diluted with an equal volume of PBS+2% foetal bovine serum (FBS) and mixed gently. The diluted samples were centrifuged 20 minutes at 1200×g on top of lymphocytes separation medium. The enriched cells were then collected from the density medium at plasma interface and washed twice with PBS+2% FBS. Cells were subsequently resuspended in RPMI 1640 medium (Lonza) supplemented with 5% FBS, 50 mM HEPES pH 7.4, glutamine, penicillin, streptomycin and fungizone (complete medium), counted with a Moxi Z mini automated cell counter (ORFLO, MXZ000). Cells suspension was adjusted at 7×10^6 cells/ml and equilibrated at least 2 h at 37° C. in a 5% CO2 humidified atmosphere.
The enriched CD4-T cell population was controlled by flow cytometry on a cytoflex (Beckman coulter). The quiescence of recovered CD4 T-cells was controlled by the low level of IL-2Rα (CD25).

gC1qR = molecular target: T1, gC1qR (Homo sapiens, UniProt Q07021); test: gC1qR-peptides binding assay (ELISA on microplates); conditions: peptide coated, His-tag-gC1qR 0 to 3 μg/well, FIG. 12
T1 sequence (Q07021 74-282): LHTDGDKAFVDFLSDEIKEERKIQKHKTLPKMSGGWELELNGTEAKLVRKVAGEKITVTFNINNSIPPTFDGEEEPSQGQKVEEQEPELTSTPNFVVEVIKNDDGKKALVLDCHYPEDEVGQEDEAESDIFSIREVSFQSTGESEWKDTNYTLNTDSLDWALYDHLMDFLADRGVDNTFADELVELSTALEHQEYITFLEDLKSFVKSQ
Method: The unbound protein was removed; the wells washed 2× with TBST (20 mM Tris-HCl pH 7.5, 150 mM NaCl, and 0.05% Tween-20) and the unreacted sites blocked by incubation (30 min, room temp) with 300 μl of 3% BSA in TBST. After washing (2× with TBST), the microtiter plate bound peptides was incubated (2 h, room temp.) with different amount of His-tag-gC1qR ranging from 0 to 3 μg/well in triplicate. After washing (5 times with TBST), 100 μl of anti-His tag-HRP antibody (1:1000; 71840-3, Merck) in 3% BSA in TBST was added per well and incubated for 2 h at room temperature. Microplates wells were then washed (5 times with TBST) and 100 μl of TMB ELISA substrate standard solution (UP664781, Interchim) was added per well. Reaction was stopped with 100 μl per well of a H2SO4 solution at 0.16M and OD at 450 nm was measured on a microplate reader (Tecan Infinite M1000 Pro).
A scrambled peptide or a control peptide were used as control.

PLA2-GIB [1] = test: PLA2-GIB enzymatic assay on [3H] arachidonic acid labelled Jurkat E6.1 T cells; format: cell-based, human; conditions: Jurkat E6.1 cells pretreated 21 h, 200 nM PLA2-GIB, FIG. 15
Method: Jurkat E6.1 T cells (ECACC 88042803) or gC1qR KO Jurkat E6.1 T cells were incubated for 17 h at 5×10^5 cells/ml with 1 μCi/ml of arachidonic acid [5,6,8,9,11,14,15-^3H(N)] (Perkin Elmer, NET298Z250UC) in RPMI 1640 medium (Lonza) supplemented with 10% FBS, 50 mM HEPES pH 7.4, glutamine, penicillin, streptomycin and fungizone at 2 ml/well in 6-well plates at 37° C. in a 5% CO2 humidified atmosphere. Cells were washed twice with RPMI with 10% FBS by centrifugation at 300×g for 10 minutes at room temperature and then frozen in 90% FBS 10% DMSO at 10^7 cells/ml/vial at −80° C. Percent of [3H] arachidonic acid in CD4 T cells is the (1 minus ratio of [3H] arachidonic acid in the supernatant of CD4 T cells without cells (cpm/ml) on total [3H] arachidonic acid in supernatant and cells (cpm/ml).
To test PLA2-GIB activity on [3H] arachidonic acid labelled Jurkat E6.1 T lymphocytes, cells were unfrozen in 10% FBS RPMI preheated at 37° C. by centrifugation at 300×g for 10 minutes at room temperature, washed twice in 2.5% FBS RPMI, and equilibrated at 5×10^4 or 10^5 Jurkat E6.1 T cells/400 μl/well in 24-well polystyrene plates for 1 h30 at 37° C. in a 5% CO2 humidified atmosphere. Then HCV core solution or vehicle dilution in 2.5% FBS RPMI at 5.95 μM was mixed with an equal volume of a PLA2GIB solution at 630 nM or 2 μM 2.5% FBS RPMI and 100 μl were added per well at the same time for 2 h. For peptide treatments, cells were pretreated for 2 h, 4 h or 21 h, as indicated on figures, with 50 μl per well of peptide solutions at 110 μM or 55 μM in 2.5% FBS RPMI. Then 50 μl per well of PLA2-GIB at 630 nM or 2 μM 2.5% FBS RPMI or medium alone were added for 2 h. Cells and supernatant were collected in eppendorf tubes and centrifuged at 580×g for 10 minutes at room temperature. The [3H] arachidonic acid released in cell supernatant was quantified in 300 μl with 16 ml of Ultima gold (Perkin Elmer, 6013329) in low diffusion vials (Perkin Elmer, 6000477) on a counter (tri-Carb 2800 TR liquid scintillation analyzer, Perkin Elmer).

PLA2-GIB [2] = test: PLA2-GIB enzymatic assay on [3H] arachidonic acid labelled CD4 T cells; format: cell-based, human; conditions: SA protein A alone at 10, 25 and 50 μg/ml, FIG. 9A
Method: PLA2-GIB enzymatic assay on [3H] arachidonic acid labelled CD4 T cells or Jurkat E6.1 T cells—Purified CD4 T-cells were incubated for 16 h at 2×10^6 cells/ml with 1 μCi/ml of arachidonic acid [5,6,8,9,11,14,15-^3H(N)] (Perkin Elmer, NET298Z250UC) in RPMI 1640 medium (Lonza) supplemented with 10% FBS, 50 mM HEPES pH 7.4, glutamine, penicillin, streptomycin and fungizone at 2 ml/well in 6-well plates at 37° C. in a 5% CO2 humidified atmosphere. Cells were washed twice with RPMI with 10% FBS by centrifugation at 580×g for 10 minutes at room temperature and then frozen in 90% FBS 10% DMSO at 10^7 cells/ml/vial at −80° C. […]
To test PLA2-GIB activity on [3H] arachidonic acid labelled CD4 T lymphocytes, cells were unfrozen in 10% FBS RPMI preheated at 37° C. by centrifugation at 580×g for 10 minutes at room temperature, washed twice in 2.5% FBS RPMI, and equilibrated at 2×10^5 CD4 T cells/400 μl/well in 24-well polystyrene plates for 1 h30 at 37° C. in a 5% CO2 humidified atmosphere. […] The [3H] arachidonic acid released in cell supernatant was quantified in 300 μl with 16 ml of Ultima gold (Perkin Elmer, 6013329) in low diffusion vials (Perkin Elmer, 6000477) on a counter (tri-Carb 2800 TR liquid scintillation analyzer, Perkin Elmer). […]

[3] = molecular target: gC1qR at the surface of human CD4 T cells / Jurkat E6.1 T cells (human) (UniProt Q07021); test: cell-based or functional assay

## C1q: Complement component C1q from human serum (Sigma C1740), natural ligand of gC1qR
pSTAT5 NT in CD4 T cells; C1q alone (10 μg/ml), FIG. 6A
  inhibition of pSTAT5 NT: 40%

## NH2-PWNATWTQRTLDDIW—COOH (H-PWNATWTQRTLDDIW-OH) [CTL peptide, control peptide for PEP3]
gC1qR
  binding to gC1qR: essentially do not
pSTAT5 NT in CD4 T cells; peptide alone, without PLA2-GIB
  effect on pSTAT5 NT: no effect
pSTAT5 NT in CD4 T cells; peptide with 5 nM of PLA2-GIB
  effect on pSTAT5 NT: no effect

## NH2-SGEGGWSNGSLVDIM-COOH (H-SGEGGWSNGSLVDIM-OH) [HP Pg]
PLA2-GIB [1]
  PLA2-GIB activity vs scrambled PEP3: significantly increased

## NH2-WNWDSKILSDPAWNS—COOH (H-WNWDSKILSDPAWNS-OH) [Scrambled PEP3, scrambled version of PEP3 used as control]
gC1qR
  binding to gC1qR: essentially do not

## PLA2-GIB: Human group IB pancreatic phospholipase A2, recombinant, produced in E. coli or in CHO-S
pSTAT5 NT in CD4 T cells; 5 nM of PLA2-GIB alone
  nuclear translocation of phosphoSTAT5 (pSTAT5 NT) induced by IL-7: does not affect
pSTAT5 NT in CD4 T cells; 5 nM of PLA2-GIB, compared with more than 92% without PLA2-GIB
  pSTAT5 NT in response to IL-7: biologically similar
pSTAT5 NT in CD4 T cells; 75 nM of PLA2-GIB alone, FIG. 4
  inhibition of pSTAT5 NT: 49%
pSTAT5 NT in CD4 T cells; 75 nM of PLA2-GIB alone
  nuclear translocation of phosphoSTAT5 (pSTAT5 NT) induced by IL-7: significantly decreases
pSTAT5 NT in CD4 T cells; 75 nM of PLA2-GIB
  pSTAT5 NT in response to IL-7: 50%
pSTAT5 NT in CD4 T cells; 250 nM of PLA2-GIB alone, FIG. 4
  inhibition of pSTAT5 NT: 79%
pSTAT5 NT in CD4 T cells; 250 nM of PLA2-GIB
  pSTAT5 NT in response to IL-7: 10%

## SA protein A: Staphylococcus aureus protein A, Sigma P6031
PLA2-GIB [2]
  release of [3H] arachidonic acids by CD4 T cells: slightly induces

## H-PWNASWSNKSLDDIW-OH [PEP3 peptide NH2-…-COOH]
[3]
  inhibition of pSTAT5 NT in CD4 T cells, 0.025 ug/ml PEP3 with 5 nM PLA2-GIB: 18%
  inhibition of pSTAT5 NT in CD4 T cells, 0.5 ug/ml PEP3 with 5 nM PLA2-GIB: 55%
  inhibition of pSTAT5 NT in CD4 T cells, 2.5 ug/ml PEP3 with 5 nM PLA2-GIB: 51%
